For experiment [1], the system named is rats. Kind of experiment: Cystometrograms in the rat PGE2 model of bladder dysfunction. The experiment is classed as in vivo. An excerpt:
In the following examples, two accepted animal models of bladder dysfunction were used. The first was a PGE2 (prostoglandin E2) model, in which installation of PGE2 into rats induces a hyperactive bladder response.
Animal models of bladder dysfunction need to take into account the fact that rodent (e.g. rat) urination behaviour differs from that of humans. However, the following parameters (as defined in Andersson et al. Neurourology and Urodynamics, 30: 636-646 (2011), which is incorporated herein by reference) are accepted measures against which therapeutic interventions can be assessed (adapted from Andersson et al.): • (a) Baseline pressure: minimum pressure between two micturitions. This parameter is important as an internal control for the procedure. • (b) Intermicturition pressure: mean pressure between two micturitions. The IMP is related to the occurrence of non-voiding contractions (NVCs). The more frequent and with higher amplitude the NVCs, the higher the IMP will be. • (c) Threshold pressure: intravesical pressure immediately before micturition. • (d) Maximum pressure: maximum bladder pressure during a micturition cycle. Also known as peak pressure, maximum voiding pressure, or maximum intravesical pressure. It should be noted that this pressure is not identical with the micturition pressure. The true micturition pressure is the pressure at which fluid starts to flow. • (e) Spontaneous activity (SA) or mean intermicturition oscillatory pressure: intermicturition pressure minus baseline pressure. This parameter is an approximate index of spontaneous bladder contractions between micturitions. SA will increase if there are frequent NVCs between micturitions. • (f) Non-voiding contractions (NVCs): defined as increases in intravesical pressure during cystometry, not associated with release of fluid. […] Since threshold pressure is the pressure at onset of micturition, subtraction of baseline pressure from threshold pressure gives the pressure variation between micturitions. • (l) Voiding efficiency: the voided volume expressed as a percentage of bladder capacity (i.e. voided volume/bladder capacity*100) • (m) External urethral sphincter electromyography: electrodes are placed into the external urethral sphincter and electromyography is recorded during bladder filling and voiding. A number of the parameters above were measured for both PGE2 and SHR rats.
A PE-90 polyethylene catheter was inserted into the bladder lumen through a small incision in the apex of the bladder dome. The bladder catheter was connected an infusion pump and a pressure transducer to measure bladder pressure. Additionally, two PFA-coated platinum-iridium wires (0.0055 inch diameter) were bilaterally inserted percutaneously into the external urethral sphincter (EUS) to record EUS EMG. Alternatively, a bipolar paddle electrode was placed intra-abdominally between the external urethral sphincter (EUS) and pubic symphysis (platinum-iridium contacts facing the urethra) to record EUS EMG.
At the start of an experiment, the bladder was continuously filled with physiological saline at room temperature using an infusion pump with an open urethra for 45 minutes to allow recovery post-surgery. The bladder was subsequently emptied, and CMG's were recorded. A single CMG event was characterized by a quiet period, a filling period, and a voiding period at the end of the voiding event, the infusion pump was turned off. The bladder was then emptied and subsequent CMG's were conducted.
PGE2: Control CMG's were conducted under saline infusion. After 2-3 subsequent control CMG events, the bladder was then infused continuously with PGE2 solution for 1 hour to allow for the bladder to reach drug related steady state. Multiple CMG's were then taken.
CMG parameters recorded were previously described by Andersson et al. as outlined above in example 1: model validation. […]

Experiment [2] deals with cats. As to the kind of experiment: Cat PGE2 model of bladder dysfunction. It counts as in vivo. Particulars: PGE2 cats versus controls (each cat before PGE2 installation is its own control); N=3. From the text: Pelvic nerve stimulation is also effective in other models of OAB.

SMILES strings stand for the structures. Entries after “also recorded” stand apart in the source; their conditions may differ.

The source of these data is patent US20180214691A1, “NEUROMODULATION DEVICE” (GALVANI BIOELECTRONICS LIMITED, priority 2015, published 2018).

Take `CCCCC[C@H](O)/C=C/[C@H]1[C@H](O)CC(=O)[C@@H]1C/C=C\CCCC(=O)O` [PGE2, prostoglandin E2]: in experiment [1] (PGE2 rats versus controls), the NVC duration entry is reported as “decreased; also recorded: reduction”, the bladder capacity entry is on record as “reduction”, the maximum bladder pressure entry is “reduction” and the threshold bladder pressure entry is given as “reduction”. Further, the “Δbladder pressure (threshold minus baseline bladder pressure)” value in experiment [1] (PGE2 rats versus controls) was “reduction”. The voiding efficiency entry in experiment [1] (PGE2 rats versus controls (each rat before PGE2 installation is its own control), bladder infused with PGE2 solution for 1 hour) is on record as “decreased voiding efficiency; also recorded: statistically non-significant reduction”. Also, the “external urethral sphincter (EUS) EMG activity” value in experiment [1] (PGE2 rats versus controls, filling and voiding phases of a CMG event) is reported as “abnormal; also recorded: increase”. For the same compound, the “non-voiding contraction (NVC) magnitude (bladder pressure area under the curve)” value in experiment [1] (PGE2 rats versus controls, filling phase) is reported as “decreased magnitude; also recorded: reduction”. The bladder capacity result in experiment [2] was “dose dependent reduction”.
